Test results as given in patent publication US20080153818A1, “METHODS FOR PREVENTING INFLAMMATION DURING SURGERY” (priority 2006, published 2008).

How the values were obtained:
[1] = tested on: existing laser-induced choroidal neovascularization (CNV); assay: Mouse laser-induced CNV, regression paradigm, oral gavage from day 7; assay type: in vivo; conditions: 3 mg/kg/day oral from day 7
[2] = tested on: preretinal neovascularization (NV) in the rat OIR model; assay: Rat OIR model, oral gavage; assay type: in vivo, Sprague-Dawley rats
Procedure: Immediately following euthanasia, retinas from all rat pups were harvested, fixed in 10% neutral buffered formalin for 24 hours, subjected to ADPase staining, and fixed onto slides as whole mounts. Digital images were acquired from each retinal flat mount that was adequately prepared. Computerized image analysis was used to obtain a NV clockhour score from each readable sample. Each clockhour out of 12 total per retina was assessed for the presence or absence of preretinal NV. Statistical comparisons using median scores for NV clockhours from each treatment group were utilized in nonparametric analyses. Each noninjected pup represented one NV score by taking the average value of both eyes and was used in comparisons against each dosage group. Because the pups were randomly assigned and no difference was observed between oxygen-exposed control pups from all litters, the NV scores were combined for all treatment groups. P≦0.05 was considered statistically significant.
METHODS. Pregnant Sprague-Dawley rats were received at 14 days gestation and subsequently gave birth on Day 22±1 of gestation. Immediately following parturition, pups were pooled and randomized into separate litters (n=17 pups/litter), placed into separate shoebox cages inside oxygen delivery chamber, and subjected to an oxygen-exposure profile from Day 0 to Day 14 postpartum. Litters were then placed into room air from Day 14/0 through Day 14/6 (days 14-20 postpartum). Additionally on Day 14/0, each pup was randomly assigned as oxygen-exposed controls, vehicle treated, or drug-treated at 1.5, 5, 10 mg/kg, p.o., BID. At Day 14/6 (20 days postpartum), all animals in both studies were euthanized and retina whole mounts were prepared as described in Example 1 above.

[3] = tested on: preretinal neovascularization (NV) in the rat model of oxygen-induced retinopathy (OIR); assay: Rat oxygen-induced retinopathy (OIR) model, single intravitreal injection; assay type: in vivo, Sprague-Dawley rats
Source text: METHODS. Pregnant Sprague-Dawley rats were received at 14 days gestation and subsequently gave birth on Day 22±1 of gestation. Immediately following parturition, pups were pooled and randomized into separate litters (n=17 pups/litter), placed into separate shoebox cages inside oxygen delivery chamber, and subjected to an oxygen-exposure profile from Day 0-14 postpartum. Litters were then placed into room air from Day 14/0 through Day 14/6 (days 14-20 postpartum). Additionally on Day 14/0, each pup was randomly assigned as an oxygen-exposed control or into various treatment groups. For those randomized into an injection treatment group: one eye received a 5 μl intravitreal injection of 0.1%, 0.3%, 0.6%, or 1% RTKi and the contralateral eye received a 5 μl intravitreal injection of vehicle. At Day 14/6 (20 days postpartum), all animals in both studies were euthanized.
Immediately following euthanasia, retinas from all rat pups were harvested, fixed in 10% neutral buffered formalin for 24 hours, subjected to ADPase staining, and fixed onto slides as whole mounts. Digital images were acquired from each retinal flat mount that was adequately prepared. Computerized image analysis was used to obtain a NV clockhour score from each readable sample. Each clockhour out of 12 total per retina was assessed for the presence or absence of preretinal NV. […]

[4] = tested on: existing laser-induced choroidal neovascularization (CNV); assay: Mouse laser-induced CNV, regression of existing CNV, intravitreal injection at day 7; assay type: in vivo; conditions: single intravitreal injection
Procedure: (§1) METHODS. CNV was generated by laser-induced rupture of Bruch's membrane. Briefly, 4 to 5 week old male C57BL/6J mice were anesthetized using intraperitoneal administration of ketamine hydrochloride (100 mg/kg) and xylazine (5 mg/kg) and the pupils of both eyes dilated with topical ocular instillation of 1% tropicamide and 2.5% Mydfin®. One drop of topical cellulose (Gonioscopic®) was used to lubricate the cornea. A hand-held cover slip was applied to the cornea and used as a contact lens to aid visualization of the fundus. Three to four retinal burns were placed in randomly assigned eye (right or left eye for each mouse) using the Alcon 532 nm EyeLite laser with a slit lamp delivery system. The laser burns were used to generate a rupture in Bruch's membrane, which was indicated ophthalmoscopically by the formation of a bubble under the retina. Only mice with laser burns that produced three bubbles per eye were included in the study. Burns were typically placed at the 3, 6, 9 or 12 o'clock positions in the posterior pole of the retina, avoiding the branch retinal arteries and veins.
(§2) Each mouse was randomly assigned into one of the following treatment groups: noninjected controls, sham-injected controls, vehicle-injected mice, or one of three RTKi-injected groups. […]
METHODS. […] Choroidal flat mounts were analyzed as described above in Example 3.

[5] = tested on: laser-induced choroidal neovascularization (CNV); assay: Mouse laser-induced CNV, prevention, intravitreal injection; assay type: in vivo, C57BL/6J mice
Procedure: as §1, §2

[6] = tested on: laser-induced choroidal neovascularization (CNV); assay: Mouse laser-induced CNV, prevention paradigm, oral gavage; assay type: in vivo; conditions: for inhibition of CNV (in words): prevention paradigm, 14 days
[7] = tested on: diabetes-induced retinal vascular permeability (STZ rat model); assay: STZ diabetic rat retinal vascular permeability, oral gavage; assay type: in vivo
Procedure: METHODS. Diabetes was induced in male Long-Evans rats with 65 mg/kg streptozotocin (STZ) after an overnight fast. Upon confirmation of diabetes (blood glucose >250 mg/dl), treatment was initiated by oral gavage. Non-diabetic (NDM) and diabetic (DM) rats received oral gavage of either vehicle or RTK inhibitor at 1.5 or 5 mg/kg/d BID. After 2 weeks, jugular vein catheters were implanted 1 day prior to experimentation for the infusion of indicator dye. Retinal vascular permeability, RVP, was measured using Evan's blue albumin permeation (45 mg/kg) after a 2 hour circulation period.

[8] = NDM and DM groups, oral gavage, 2 weeks

Cc1ccc(F)c(NC(=O)Nc2ccc(-c3cccc4[nH]nc(N)c34)cc2)c1 [Compound 86, N-[4-[3-amino-1H-indazol-4-yl]phenyl]-N′-(2-fluoro-5-methylphenyl)urea]
regression of existing CNV (in words) [1]: did not show a significant regression | decrease in NV (in words) ([2]; 3 mg/kg/day p.o.): did not have a significant decrease | inhibition of preretinal NV (in words) ([2]; 20 mg/kg/day p.o.): complete inhibition | effect on preretinal neovascularization (in words, FIG. 2) ([2]; oral gavage): prevents | efficacy against preretinal NV (in words) ([3]; 0.1% treated eyes, intravitreal): Efficacy was not observed | effect on preretinal neovascularization (in words, FIG. 1) ([3]; single intravitreal injection): inhibits | effect on existing laser-induced CNV (in words, FIG. 4) [4]: induces regression | difference in CNV versus vehicle injected eyes (in words) ([5]; 0.3% RTKi, intravitreal): marginal statistical difference | effect on laser-induced CNV (in words, FIG. 3) ([5]; single intravitreal injection): inhibits | effect on laser-induced CNV (in words, FIG. 6) ([6]; oral gavage): inhibits | inhibition of CNV (in words) ([6]; 3 mg/kg/day oral gavage): no significant inhibition | inhibition of CNV (in words) ([6]; 20 mg/kg/d oral gavage): complete inhibition | RVP (in words) ([7]; NDM (non-diabetic) rats, 5 mg/kg/d oral gavage): unchanged | systemic or ERG side effects [7, 8]: no observed systemic or ERG side effects | tolerability of oral treatment [7, 8]: well tolerated
